{"source": "paper PMC8838415", "about": "“Discovery of Novel Pleuromutilin Derivatives as Potent Antibacterial Agents for the Treatment of MRSA Infection” (Molecules, 2022)", "key": {"[1]": {"system": "S. aureus (AD3)", "experiment": "MIC and MBC, broth dilution, S. aureus AD3", "format": "cell-based", "settings": "Staphylococcus aureus; S. aureus AD3 (clinical strain)", "procedure": "(§1) The synthesized pleuromutilin derivatives 8–30 were tested against four Gram-positive bacteria (MRSA ATCC 43300, S. aureus ATCC 29213 and two clinical strains of S. aureus (AD3 and 144) isolated from Guangdong Province). Tiamulin was used as the positive control in this experiment.\n(§2) MIC values were tested following our previous work. The derivatives were dissolved in an aqueous solution of 2.5% tween-80 and 2.5% DMSO to make a solution with a concentration of 1000 µg/mL. The solution was diluted 12 times with MH broth to give a concentration range of 32–0.01 µg/mL. The bacteria (5 × 10^5 CFU/mL) were added in each well. For each compound concentration, three parallel experiments were set. The 96-well plate was incubated for 22–26 h at 37 °C. The MIC value was recorded as the minimal concentration that inhibits the visible growth of tested bacteria completely.\n(§3) The MBC of these pleuromutilin derivatives were tested according to a previously reference. […] Then, the values of MBC were determined by laying 100 μL aliquots from the wells onto the MH agar plates without visible growth. The MH agar plate was cultured for a further 22–26 h at 37 °C."}, "[2]": {"system": "MRSA", "experiment": "Neutropenic murine thigh infection model", "format": "in vivo, mice", "settings": "20 mg/kg intravenously, 24 h, compared to the no-drug control group", "procedure": "The neutropenic murine thigh infection model experiment was performed as described in the literature. Six-week-old SPF-ICR female mice weighing 24–28 g were used for this study. The mice were injected with cyclophosphamide (Mead Johnson Pharmaceuticals, Evansville, Indiana—IN, USA) at a dose of 150 mg/kg 4 days and at a dose of 100 mg/kg 1 day before the experiment to reduce neutrophils and achieve immunosuppression (<0.1 × 10^9/L). A total of 0.1 mL MH broth (MRSA concentration approximately 10^7 CFU/mL) was injected into the posterior thigh of mice to establish the infection model. After the thighs of the mice were infected for 2 h, these mice were randomly divided into 3 groups (3 per group). […] A total of 24 h after the completion of the drug, the mice were euthanized and their thigh tissues were collected. Then, their thigh tissues were weighed and homogenized, respectively, in 3 mL of iced sterile saline. Tissue homogenate was serially diluted 10-fold and plated on MH agar. The resulting bacterial colonies were determined after incubation for 24 h."}, "[3]": {"system": "S. aureus (ATCC 29213)", "experiment": "MIC and MBC, broth dilution, S. aureus ATCC 29213", "format": "cell-based", "settings": "Staphylococcus aureus, ATCC29213", "procedure": "as §1, §2, §3"}, "[4]": {"system": "MRSA ATCC 43300", "parameters": "method as in PMID 33137559", "settings": "cited from earlier work"}, "[5]": {"molecular_target": "CYP3A4 (Homo sapiens, UniProt P08684)", "sequence (P08684 whole entry)": "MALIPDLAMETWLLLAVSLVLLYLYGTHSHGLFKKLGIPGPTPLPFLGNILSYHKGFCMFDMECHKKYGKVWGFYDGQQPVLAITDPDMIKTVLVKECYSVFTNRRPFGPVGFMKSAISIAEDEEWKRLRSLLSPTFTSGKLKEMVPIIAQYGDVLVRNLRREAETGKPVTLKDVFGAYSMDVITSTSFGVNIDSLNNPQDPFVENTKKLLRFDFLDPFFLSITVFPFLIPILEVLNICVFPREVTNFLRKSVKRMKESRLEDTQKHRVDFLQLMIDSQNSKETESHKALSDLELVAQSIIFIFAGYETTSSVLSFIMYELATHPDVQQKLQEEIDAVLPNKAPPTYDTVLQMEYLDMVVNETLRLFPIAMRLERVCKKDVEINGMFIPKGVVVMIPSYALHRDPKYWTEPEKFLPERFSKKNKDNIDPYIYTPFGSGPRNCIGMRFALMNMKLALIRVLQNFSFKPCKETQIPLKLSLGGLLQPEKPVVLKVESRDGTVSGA", "settings": "read-out: IC50 CYP3A4, cited from earlier work"}, "[6]": {"system": "S. aureus (144)", "experiment": "MIC and MBC, broth dilution, S. aureus 144", "format": "cell-based", "settings": "Staphylococcus aureus; S. aureus 144 (clinical strain)", "procedure": "as §1, §2, §3"}, "[7]": {"system": "methicillin-resistant S. aureus (ATCC 43300)", "experiment": "MIC and MBC, broth dilution, MRSA ATCC 43300", "format": "cell-based", "settings": "Staphylococcus aureus", "procedure": "as §1, §2, §3"}, "[8]": {"system": "50S ribosome", "experiment": "SPR interaction and affinity analysis", "format": "binding, S. aureus ATCC 43300", "settings": "4 °C", "procedure": "S. aureus ATCC 43300 was used to prepare the 50S ribosomal subunit the same way as described previously. Cells were grown overnight in Brain Heart Infusion broth at 37 °C and harvested for 1.5 h at an OD600. Cells were washed with 10 mM Tris-HCl twice at pH = 7.5, and resuspended in 5 mL buffer A (20 mM HEPES-HCl pH = 7.5, 21 mM Mg(OAc)2, 100 mM NH4Cl, 1 mM DTT, 1 mM EDTA). Cells were broken by an ultrasound crusher. The lysate was centrifuged for 90 min at 20,000× g to clear cell debris.\nThe solution was layered on a sucrose cushion of 15 mL (10 mM Hepes-KOH pH 7.5, 25 mM Mg(OAc)2, 500 mM KCl, […], 1 mM DTT, 0.5 mM EDTA). Centrifugation was carried out for 15 h at 45,000 rpm using an ultracentrifuge Beckman (Beckman Coulter, Shanghai, China), Type 70Ti rotor. The crude ribosome pellet was resuspended in buffer E (10 mM Hepes-KOH pH 7.5, 10 mM Mg(OAc)2, 100 mM KCl, 1 mM DTT, 0.5 mM EDTA), then layered on 9 mL of 7–30% sucrose gradient and centrifuged in an ultracentrifuge Beckman, type SW40Ti rotor at 17,100 rpm for 15 h. The gradient was analyzed on the AKTA explorer system (Amersham, UK). The fractions corresponding to the 50S ribosomal subunit were collected and further subjected to precipitation by PEG 20,000. The 50S ribosomal subunit pellet was gently dissolved in 200 µL of storage buffer (10 mM HEPES-HCl pH = 7.5, 10 mM Mg(OAc)2, 15 mM KCl, 60 mM NH4Cl, 1 mM DTT) and stored at −80 °C.\nSPR affinity analysis was performed on the bScreen LB 991 Label-free Microarray System (Berthold Technologies, Black Forest, Germany) at 4 °C and Biodot AD-1520 Array Printer (BIODOT Inc., Irvine, CA, USA) with a Photo-cross-linker SensorCHIP™. Concentrations of each compound were diluted to 100 μM with DMSO as the printing working solution for immobilization. A Biodot AD-1520 Array Printer (BIODOT Inc., CA, USA) was used to control the photo-cross-linker sensor chip and print samples. Each sample was printed four times. In order to check the chip quality and check whether the detection system works, DMSO was used as a system-negative control and rapamycin as a positive control. All positive control dots were divided into four groups and printed on the four corners of the sensor chip. The sensor chip was dried in vacuum after the array print and quickly transferred to a spectra radiator for a photo cross-linking reaction. The sensor chip was washed with C2H5OH, DMF and H2O in turn and evaporated in a N2 atmosphere for 15 min. Then, the Flowcell Cover were assembled.\nThe 50S ribosome was diluted separately to 200 nM, 400 nM, 800 nM, 1600 nM and 3200 nM with PBST (pH = 7.4, 0.1% Tween 20). Different concentrations of ribosome solutions were injected at a flow rate of 0.5 μL⋅s^−1 for 600 s at the associating stage at 4 °C, followed by PBST at a flow rate of 0.5⋅μL·s^−1 for 360 s at each dissociating stage. Then, the surface was regenerated with Glycine-HCl (pH = 2.0) at a flow rate of 2⋅μL·s^−1 for 300 s.\nThe raw data of the binding process of compounds and the 50S ribosome were recorded in real time. We compared the response unit (RU) of surface resonance to determine the different binding affinity between each sample dot. The process and analysis of association rate constants (Ka) and dissociation rate constants (Kd) and the equilibrium dissociation constant (KD, Kd/Ka) were performed using the data analysis software of the bScreen LB 991 Label-free Microarray System according to a single-site binding model (1:1 Langmuir binding) with mass transfer limitations for binding kinetics determination."}}, "note": "Read-outs that look alike come from different tables or passages of the source."}
{"compound": "C=C[C@]1(C)C[C@@H](OC(=O)CSCCN(CC)CC)[C@]2(C)[C@H](C)CC[C@]3(CCC(=O)[C@H]32)[C@@H](C)[C@@H]1O", "note": "[Tiamulin, tiamulin, reference compound]", "values": [{"measurement": "MBC", "setting": "[1]", "value": 1, "unit": "µg/mL"}, {"measurement": "MIC", "setting": "[1]", "value": 1, "unit": "µg/mL"}, {"measurement": "reduction of MRSA load in thigh", "setting": "[2]", "value": "~ 0.6 log10 CFU/mL"}, {"measurement": "MBC", "setting": "[3]", "value": 1, "unit": "µg/mL"}, {"measurement": "MIC", "setting": "[3]", "value": 0.5, "unit": "µg/mL"}, {"measurement": "PAE", "setting": "[4]; 2× MIC", "value": 1.65, "unit": "h"}, {"measurement": "PAE", "setting": "[4]; 4× MIC", "value": 2.04, "unit": "h"}, {"measurement": "IC50", "setting": "[5]", "value": 1.64, "unit": "µM"}, {"measurement": "IC50", "setting": "[5]; converted with MW", "value": 1.64, "unit": "µM"}, {"measurement": "MBC", "setting": "[6]", "value": 8, "unit": "µg/mL"}, {"measurement": "MIC", "setting": "[6]", "value": 1, "unit": "µg/mL"}, {"measurement": "MBC", "setting": "[7]", "value": 0.25, "unit": "µg/mL"}, {"measurement": "MIC", "setting": "[7]", "value": 0.25, "unit": "µg/mL"}, {"measurement": "Avg ka", "setting": "[8]; 1:1 Langmuir binding", "value": 121, "unit": "M⁻¹ s⁻¹"}, {"measurement": "Avg kd", "setting": "[8]; 1:1 Langmuir binding", "value": "3.03e-06", "unit": "s⁻¹"}, {"measurement": "Kd", "setting": "[8]; KD = Kd/Ka", "value": 0.025, "unit": "µM"}]}
